Columns and labels:
Format in all cases: in vivo
[1] = system: ABUTH: Abutilon theophrasti; test: Pre-emergence herbicidal action; conditions: Table C1, pre-emergence, 80 g/ha, scored visually after about 3 weeks
Source text: (§1) Seeds of monocotyledonous and dicotyledonous weed plants and crop plants are placed in plastic or wood fiber pots and covered with soil. The compounds of the invention, formulated in the form of wettable powders (WP) or as emulsion concentrates (EC), are then applied onto the surface of the covering soil as aqueous suspension or emulsion with addition of 0.5% additive at a water application rate of […] (converted). After the treatment, the pots are placed in a greenhouse and kept under good growth conditions for the trial plants. After about 3 weeks, the effect of the preparations is scored visually in comparison with untreated controls as percentages. For example, 100% activity=the plants have died, 0% activity=like control plants. [table]

[2] = system: ALOMY: Alopecurus myosuroides; test: Pre-emergence herbicidal action
Source text: as §1

[3] = system: AMARE: Amaranthus retroflexus; test: Pre-emergence herbicidal action
Source text: as §1

AVEFA: Avena fatua [4] = test: Pre-emergence herbicidal action
Source text: as §1

[5] = system: ECHCG: Echinochloa crus-galli; test: Pre-emergence herbicidal action; conditions: Table C1, pre-emergence, 80 g/ha, scored visually after about 3 weeks
Source text: as §1

HORMU: Hordeum murinum [6] = test: Pre-emergence herbicidal action; conditions: Table C1, pre-emergence, 80 g/ha, scored visually after about 3 weeks
Source text: as §1

LOLRI: Lolium rigidum [7] = test: Pre-emergence herbicidal action; conditions: Table C1, pre-emergence, 80 g/ha, scored visually after about 3 weeks
Source text: as §1

[8] = system: MATIN: Matricaria inodora; test: Pre-emergence herbicidal action; conditions: Table C1, pre-emergence, 80 g/ha, scored visually after about 3 weeks
Source text: as §1

PHBPU: Ipomoea purpurea = test: Pre-emergence herbicidal action; conditions: Table C1, pre-emergence, 80 g/ha, scored visually after about 3 weeks
Source text: as §1

[9] = system: POLCO: Polygonum convolvulus; test: Pre-emergence herbicidal action; conditions: Table C1, pre-emergence, 80 g/ha, scored visually after about 3 weeks
Source text: as §1

SETVI: Setaria viridis [10] = test: Pre-emergence herbicidal action
Source text: as §1

STEME: Stellaria media [11] = test: Pre-emergence herbicidal action
Source text: as §1

VERPE: Veronica persica [12] = test: Pre-emergence herbicidal action
Source text: as §1

VIOTR: Viola tricolor [13] = test: Pre-emergence herbicidal action
Source text: as §1

[14] = system: ABUTH: Abutilon theophrasti; test: Post-emergence herbicidal action; conditions: Second Table C3, superiority with respect to WO 2012/130798, post-emergence, 80 g/ha
Experimental: (§2) [table] Seeds of monocotyledonous and dicotyledonous weeds and crop plants are placed in sandy loam in plastic or wood-fiber pots, covered with soil and cultivated in a greenhouse under controlled growth conditions. 2 to 3 weeks after sowing, the test plants are treated at the one-leaf stage. The compounds of the invention, formulated in the form of wettable powders (WP) or as emulsion concentrates (EC), are then sprayed onto the green parts of the plants as aqueous suspension or emulsion with addition of 0.5% additive at a water application rate of […] (converted). After the test plants had been kept in the greenhouse under optimum growth conditions for about 3 weeks, the activity of the preparations is rated visually in comparison to untreated controls. For example, 100% activity=the plants have died, 0% activity=like control plants.

[15] = system: ALOMY: Alopecurus myosuroides; test: Post-emergence herbicidal action; conditions: rated visually after about 3 weeks
Experimental: as §2

[16] = system: AMARE: Amaranthus retroflexus; test: Post-emergence herbicidal action; conditions: rated visually after about 3 weeks
Experimental: as §2

AVEFA: Avena fatua [17] = test: Post-emergence herbicidal action; conditions: rated visually after about 3 weeks
Experimental: as §2

[18] = system: ECHCG: Echinochloa crus-galli; test: Post-emergence herbicidal action; conditions: rated visually after about 3 weeks
Experimental: as §2

HORMU: Hordeum murinum [19] = test: Post-emergence herbicidal action; conditions: rated visually after about 3 weeks
Experimental: as §2

LOLRI: Lolium rigidum [20] = test: Post-emergence herbicidal action; conditions: rated visually after about 3 weeks
Experimental: as §2

[21] = system: POLCO: Polygonum convolvulus; test: Post-emergence herbicidal action; conditions: rated visually after about 3 weeks
Experimental: as §2

STEME: Stellaria media [22] = test: Post-emergence herbicidal action
Experimental: as §2

VERPE: Veronica persica [23] = test: Post-emergence herbicidal action; conditions: rated visually after about 3 weeks
Experimental: as §2

SETVI: Setaria viridis [24] = test: Post-emergence herbicidal action; conditions: Table C3, post-emergence, 320 g/ha, rated visually after about 3 weeks
Experimental: as §2

VIOTR: Viola tricolor [25] = test: Post-emergence herbicidal action; conditions: Table C3, post-emergence, 320 g/ha, rated visually after about 3 weeks
Experimental: as §2

DIGSA = test: Post-emergence herbicidal action; conditions: Table C3, post-emergence, 320 g/ha, rated visually after about 3 weeks
Experimental: as §2, with “Seeds” for “[table] Seeds”

[26] = Second Table C4, superiority with respect to WO 2012/130798, pre-emergence, 20 g/ha
[27] = Table C1, pre-emergence, 80 g/ha, scored visually after about 3 weeks
[28] = Table C2, post-emergence, dosage 320 (0.32 kg of active substance per hectare)
[29] = Second Table C3, superiority with respect to WO 2012/130798, post-emergence, 80 g/ha
[30] = Table C2, post-emergence, dosage 320 (0.32 kg of active substance per hectare), rated visually after about 3 weeks
[31] = Table C3, post-emergence, 320 g/ha
[32] = Table C4, post-emergence, 320 g/ha

Row | SMILES | Herbicidal action against [%] ABUTH [1] | Herbicidal action against [%] ALOMY [2, 26] | Herbicidal action against [%] ALOMY [2, 27] | Herbicidal action against [%] AMARE [3, 26] | Herbicidal action against [%] AMARE [3, 27] | Herbicidal action against [%] AVEFA (AVEFA: Avena fatua [4]; [26]) | Herbicidal action against [%] AVEFA (AVEFA: Avena fatua [4]; [27]) | Herbicidal action against [%] ECHCG [5] | Herbicidal action against [%] HORMU (HORMU: Hordeum murinum [6]) | Herbicidal action against [%] LOLRI (LOLRI: Lolium rigidum [7]) | Herbicidal action against [%] MATIN [8] | Herbicidal action against [%] PHBPU (PHBPU: Ipomoea purpurea) | Herbicidal action against [%] POLCO [9] | Herbicidal action against [%] SETVI (SETVI: Setaria viridis [10]; [26]) | Herbicidal action against [%] SETVI (SETVI: Setaria viridis [10]; [27]) | Herbicidal action against [%] STEME (STEME: Stellaria media [11]; [26]) | Herbicidal action against [%] STEME (STEME: Stellaria media [11]; [27]) | Herbicidal action against [%] VERPE (VERPE: Veronica persica [12]; [26]) | Herbicidal action against [%] VERPE (VERPE: Veronica persica [12]; [27]) | Herbicidal action against [%] VIOTR (VIOTR: Viola tricolor [13]; [27]) | further results
1 | CCOC(=O)C1CCC(NC(=O)C2(C(F)(F)F)CC(c3cc(F)cc(F)c3)=NO2)C1 (mixture of isomers) [Example I-29] | 70% | 90% | 100% | 100% | 100% | 70% | 80% | 90% | 90% | 100% | 30% | 80% | 80% | 90% | 100% | 90% | 90% | 90% | 100% | 90% | Herbicidal action against [%] VIOTR (VIOTR: Viola tricolor [13]; [26]): 90%; Herbicidal action against [%] ABUTH [14]: 80%; Herbicidal action against [%] ALOMY [15, 28]: 90%; Herbicidal action against [%] AMARE [16, 28]: 80%; Herbicidal action against [%] AVEFA (AVEFA: Avena fatua [17]; [28]): 90%; Herbicidal action against [%] ECHCG [18, 28]: 80%; Herbicidal action against [%] HORMU (HORMU: Hordeum murinum [19]; [28]): 90%; Herbicidal action against [%] LOLRI (LOLRI: Lolium rigidum [20]; [28]): 90%; Herbicidal action against [%] POLCO [21, 28]: 90%; Herbicidal action against [%] STEME (STEME: Stellaria media [22]; [29]): 80%; Herbicidal action against [%] STEME (STEME: Stellaria media [22]; [30]): 80%; Herbicidal action against [%] VERPE (VERPE: Veronica persica [23]; [28]): 80%
2 | O=C(OCCCl)C1CCC(NC(=O)C2(C(F)(F)F)CC(c3cc(F)cc(F)c3)=NO2)C1 (mixture of isomers) [Example I-99] | 80% | – | 100% | – | 100% | – | 90% | 90% | 100% | 100% | 80% | 90% | – | – | 100% | – | 100% | – | 100% | 100% | Herbicidal action against [%] ALOMY [15, 28]: 90%; Herbicidal action against [%] AMARE [16, 28]: 90%; Herbicidal action against [%] AVEFA (AVEFA: Avena fatua [17]; [28]): 90%; Herbicidal action against [%] ECHCG [18, 28]: 90%; Herbicidal action against [%] HORMU (HORMU: Hordeum murinum [19]; [28]): 90%; Herbicidal action against [%] LOLRI (LOLRI: Lolium rigidum [20]; [28]): 100%; Herbicidal action against [%] POLCO [21, 28]: 80%; Herbicidal action against [%] STEME (STEME: Stellaria media [22]; [30]): 90%; Herbicidal action against [%] VERPE (VERPE: Veronica persica [23]; [28]): 90%
3 | CCOC(=O)C1CCC(NC(=O)C2(C(F)(F)F)CC(c3cc(C)cc(Cl)c3)=NO2)C1 (mixture of isomers) [Example I-808] | – | – | – | – | – | – | – | – | – | – | – | – | – | – | – | – | – | – | – | – | Herbicidal action against [%] ALOMY [15, 31]: 90%; Herbicidal action against [%] AMARE [16, 31]: 80%; Herbicidal action against [%] AVEFA (AVEFA: Avena fatua [17]; [31]): 90%; Herbicidal action against [%] ECHCG [18, 31]: 80%; Herbicidal action against [%] HORMU (HORMU: Hordeum murinum [19]; [31]): 90%; Herbicidal action against [%] LOLRI (LOLRI: Lolium rigidum [20]; [31]): 90%; Herbicidal action against [%] POLCO [21, 31]: 100%; Herbicidal action against [%] SETVI (SETVI: Setaria viridis [24]): 90%; Herbicidal action against [%] VERPE (VERPE: Veronica persica [23]; [31]): 90%; Herbicidal action against [%] VIOTR (VIOTR: Viola tricolor [25]): 80%; Herbicidal action against [%] DIGSA (DIGSA): 90%
4 | CCOC(=O)C1CCC(NC(=O)C2(C)CC(c3cc(F)cc(F)c3)=NO2)C1 (stereo not shown) [Example 6.736, reference compound] | – | 70% | – | 0% | – | 50% | – | – | – | – | – | – | – | 20% | – | 50% | – | 70% | – | – | Herbicidal action against [%] VIOTR (VIOTR: Viola tricolor [13]; [26]): 0%; Herbicidal action against [%] ABUTH [14]: 60%; Herbicidal action against [%] STEME (STEME: Stellaria media [22]; [29]): 50%
5 | CCOC(=O)[C@@H]1CC[C@H](NC(=O)[C@@]2(C(F)(F)F)CC(c3cc(F)cc(F)c3)=NO2)C1 [Example I-39, ethyl (1R,3S)-3-({[(5R)-3-(3,5-difluorophenyl)-5-(trifluoromethyl)-4,5-dihydro-1,2-oxazol-5-yl]carbonyl}amino)cyclopentanecarboxylate] | 70% | – | 100% | – | 100% | – | 100% | 100% | 90% | 100% | 90% | 80% | 100% | – | 100% | – | – | – | – | 100% | Herbicidal action against [%] ALOMY [15, 32]: 100%; Herbicidal action against [%] AMARE [16, 32]: 80%; Herbicidal action against [%] HORMU (HORMU: Hordeum murinum [19]; [32]): 100%; Herbicidal action against [%] LOLRI (LOLRI: Lolium rigidum [20]; [32]): 90%; Herbicidal action against [%] POLCO [21, 32]: 80%

— patent US20200369630A1, “HERBICIDALLY ACTIVE 3-PHENYL-5-TRIFLUOROMETHYLISOXAZOLINE-5-CARBOXAMIDES OF CYCLOPENTYLCARBOXYLIC ACIDS AND ESTERS” (Bayer Aktiengesellschaft, priority 2017, published 2020)
